Reference: ChEMBL document CHEMBL1134037, “Novel inhibitors of Leishmanial dihydrofolate reductase” (Bioorg Med Chem Lett, 2001)
pIC50: −log10 of the molar value.

Legend:
[1] = target: T1, Dihydrofolate reductase (Homo sapiens) (UniProt P00374); test: Percent inhibition of compound against recombinant human dihydrofolate reductase at a concentration of 15 uM
T1 sequence (whole entry): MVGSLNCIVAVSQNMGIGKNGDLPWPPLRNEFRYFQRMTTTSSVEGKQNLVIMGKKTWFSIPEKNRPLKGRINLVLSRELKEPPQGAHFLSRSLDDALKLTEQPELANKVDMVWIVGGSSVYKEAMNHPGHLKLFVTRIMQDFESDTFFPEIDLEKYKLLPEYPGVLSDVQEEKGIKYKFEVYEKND

[2] = tested on: Leishmania donovani; test: In vitro inhibition of compound against Leishmania donovani was determined; type: functional, organism-based
[3] = tested on: Trypanosoma cruzi; test: In vitro inhibition of compound against Trypanosoma cruzi was determined; type: functional, organism-based
[4] = tested on: Trypanosoma brucei; test: In vitro inhibition of compound against Trypanosoma brucei was determined; type: functional, organism-based
[5] = (§1) Cytotoxicity of compound was determined against rat L-6 cells; type: functional
[6] = target: Bifunctional dihydrofolate reductase-thymidylate synthase (Leishmania major) (UniProt P07382); test: Percent inhibition of compound against recombinant Leishmanial major dihydrofolate reductase at a concentration of 100 uM
[7] = target: T1, Dihydrofolate reductase (Homo sapiens); test: Percent inhibition of compound against recombinant human dihydrofolate reductase at a concentration of 100 uM
[8] = as §1; type: functional, cell-based; details: L6
[9] = target: T1, Dihydrofolate reductase (Homo sapiens); test: Percent inhibition of compound against recombinant human dihydrofolate reductase at a concentration of 50 uM

Bifunctional dihydrofolate reductase-thymidylate synthase (Leishmania major), sequence (P07382 whole entry, looked up): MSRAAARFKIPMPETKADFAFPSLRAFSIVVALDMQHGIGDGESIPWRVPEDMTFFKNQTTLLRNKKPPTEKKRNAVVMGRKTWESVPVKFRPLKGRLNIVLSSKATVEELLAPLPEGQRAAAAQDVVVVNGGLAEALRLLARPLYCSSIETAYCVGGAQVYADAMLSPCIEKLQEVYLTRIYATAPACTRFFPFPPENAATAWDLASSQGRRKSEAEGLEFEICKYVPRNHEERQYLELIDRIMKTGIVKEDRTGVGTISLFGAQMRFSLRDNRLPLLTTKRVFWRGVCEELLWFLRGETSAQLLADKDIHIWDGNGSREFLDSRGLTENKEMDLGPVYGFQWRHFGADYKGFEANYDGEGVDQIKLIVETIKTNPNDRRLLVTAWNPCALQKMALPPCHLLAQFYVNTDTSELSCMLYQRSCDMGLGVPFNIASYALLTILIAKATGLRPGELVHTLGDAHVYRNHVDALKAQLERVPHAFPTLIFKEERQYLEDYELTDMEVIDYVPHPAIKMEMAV

SMILES | inhibition [1] [%] | pIC50 [2] | pIC50 [3] | pIC50 [4] | MIC [5] [µM] | inhibition [6] [%] | inhibition [7] [%] | pIC50 [8] | inhibition [9] [%]
COC(=O)/C(C#N)=C/c1ccc(/C=C/c2ccccn2)cc1 | 21 | 4.25 | 4.52 | 4.80 | > 310 | 32 |  |  | 
CCOC(=O)/C(C#N)=C/c1ccc(/C=C/c2ccccn2)cc1 |  | 4.33 | 5.07 | 4.82 |  | 50 | 43 | < 3.53 | 
O=c1[nH]c(=O)n([C@H]2C[C@H](O)[C@@H](CO)O2)c2nc(-c3ccccc3)c(-c3ccccc3)nc12 |  | 4.16 | 4.46 | 4.96 |  | 50 |  | 3.68 | 37
COC(=O)N[C@H](C(=O)OC)[C@H](O)[C@@H](C)c1c(C)nc2n(C)c3ncn(Cc4ccccc4)c3c(=O)n12 |  | > 4.68 | 4.28 | 3.97 |  | 24 | 16 | 3.74 | 
CCn1ncc2c1n/c(=N\c1ccccc1)n1ccc3ccccc3c21 |  | 4.27 | 4.22 | 4.46 |  | 28 | 10 | < 3.58 | 
